Reference: patent publication US20110306597A1, “Nicotinamide Derivatives” (priority 2008, published 2011)
pIC50: −log10 of the molar value.

Molecular target: human recombinant H-PGDS (Homo sapiens, UniProt O60760)
Assay: Fluorescence Intensity h-PGDS TBA Enzyme Assay
Format: biochemical
Details: 1:175,000 human recombinant H-PGDS, highest inhibitor concentration typically 1 μM
Procedure, shortened: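 Recombinant human H-PGDS preincubated 10 min at room temperature with inhibitor in 100 mM Tris pH 8.0, 100 μM MgCl2, 2.5 mM glutathione, 0.5% DMSO; 5.0 μM PGH2 added, stopped after 42 s with FeCl2/citric acid. Remaining PGH2 measured as MDA–TBA fluorescence (ex 530/em 565 nm); IC50 by 4-parameter fit, 11 concentrations.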

Chain of human recombinant H-PGDS (O60760 whole entry): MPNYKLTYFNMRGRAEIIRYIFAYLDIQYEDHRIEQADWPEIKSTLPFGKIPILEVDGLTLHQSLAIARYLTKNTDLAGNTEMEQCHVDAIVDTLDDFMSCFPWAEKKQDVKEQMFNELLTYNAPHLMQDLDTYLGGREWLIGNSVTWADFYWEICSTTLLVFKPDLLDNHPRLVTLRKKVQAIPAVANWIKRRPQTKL

Structure (SMILES)	pIC50
O=C(NCC1CCCN(C2CCOCC2)C1)c1ccc(-c2cccc(F)c2)nc1 (stereo not drawn) [Example 110, 6-(3-Fluorophenyl)-N-{[1-(tetrahydro-2H-pyran-4-yl)piperidin-3-yl]methyl}nicotinamide]	7.06
CN1CCN(CCCNC(=O)c2ccc(-c3cccc(F)c3)nc2)CC1 [Example 111, 6-(3-Fluorophenyl)-N-[3-(4-methylpiperazin-1-yl)propyl]nicotinamide]	6.97
Cc1cc(=O)[nH]c(N2CCCC(CNC(=O)c3ccc(-c4cccc(F)c4)nc3)C2)n1 (stereo not drawn) [Example 112, 6-(3-Fluorophenyl)-N-{[1-(4-methyl-6-oxo-1,6-dihydropyrimidin-2-yl)piperidin-3-yl]methyl}nicotinamide]	7.53
CN1CCC(CNC(=O)c2ccc(-c3cccc(F)c3)nc2)CC1 [Example 113, 6-(3-Fluorophenyl)-N-[(1-methylpiperidin-4-yl)methyl]nicotinamide]	6.83
CCN1CCCC(CNC(=O)c2ccc(-c3cccc(F)c3)nc2)C1 (stereo not drawn) [Example 114, N-[(1-Ethylpiperidin-3-yl)methyl]-6-(3-fluorophenyl)nicotinamide]	6.63
Cc1cc(O)nc(CNC(=O)c2ccc(-c3cccc(F)c3)nc2)n1 [Example 115, 6-(3-Fluorophenyl)-N-[(4-hydroxy-6-methylpyrimidin-2-yl)methyl]nicotinamide]	7.02
CC(C)N1CCCC(CNC(=O)c2ccc(-c3cccc(F)c3)nc2)C1 (stereo not drawn) [Example 116, 6-(3-Fluorophenyl)-N-[(1-isopropylpiperidin-3-yl)methyl]nicotinamide]	6.79
CC(C)N1CCC(CNC(=O)c2ccc(-c3cccc(F)c3)nc2)CC1 [Example 117, 6-(3-Fluorophenyl)-N-[(1-isopropylpiperidin-4-yl)methyl]nicotinamide]	6.97
O=C(NCCCc1ccccn1)c1ccc(-c2cccc(F)c2)nc1 [Example 118, 6-(3-Fluorophenyl)-N-(3-pyridin-2-ylpropyl)nicotinamide]	8.28
Cc1nccn1CCNC(=O)c1ccc(-c2cccc(F)c2)nc1 [Example 119, 6-(3-Fluorophenyl)-N-[2-(2-methyl-1H-imidazol-1-yl)ethyl]nicotinamide]	7.22
O=C(NC1C(=O)NCCc2ccccc21)c1ccc(-c2cccc(F)c2)nc1 (stereo not drawn) [Example 120, 6-(3-Fluorophenyl)-N-(2-oxo-2,3,4,5-tetrahydro-1H-3-benzazepin-1-yl)nicotinamide]	7.17
CN1CCC(O)(CNC(=O)c2ccc(-c3cccc(F)c3)nc2)CC1 [Example 121, 6-(3-Fluorophenyl)-N-[(4-hydroxy-1-methylpiperidin-4-yl)methyl]nicotinamide]	6.89
Cc1cc(-c2cnc(C(C)(C)C)nc2CNC(=O)c2ccc(-c3cccc(F)c3)nc2)on1 [Example 122, N-{[2-tert-Butyl-5-(3-methylisoxazol-5-yl)pyrimidin-4-yl]methyl}-6-(3-fluorophenyl)nicotinamide]	< 6.00
O=C(NC(c1cccc(Cl)c1)c1nn[nH]n1)c1ccc(-c2cccc(F)c2)nc1 (stereo not drawn) [Example 123, N-[(3-Chlorophenyl)(2H-tetrazol-5-yl)methyl]-6-(3-fluorophenyl)nicotinamide]	7.81
Cc1cc(C(F)(F)F)nc(CCNC(=O)c2ccc(-c3cccc(F)c3)nc2)n1 [Example 124, 6-(3-Fluorophenyl)-N-{2-[4-methyl-6-(trifluoromethyl)pyrimidin-2-yl]ethyl}nicotinamide]	7.74
Cc1c(C(C)NC(=O)c2ccc(-c3cccc(F)c3)nc2)cnn1C (stereo not drawn) [Example 125, N-[1-(1,5-Dimethyl-1H-pyrazol-4-yl)ethyl]-6-(3-fluorophenyl)nicotinamide]	7.62
CC(Cn1cccn1)NC(=O)c1ccc(-c2cccc(F)c2)nc1 (stereo not drawn) [Example 126, 6-(3-Fluorophenyl)-N-[1-methyl-2-(1H-pyrazol-1-yl)ethyl]nicotinamide]	7.47
CC(C)c1cc(CNC(=O)c2ccc(-c3cccc(F)c3)nc2)on1 [Example 127, 6-(3-Fluorophenyl)-N-[(3-isopropylisoxazol-5-yl)methyl]nicotinamide]	7.52
